Tests used:
[1] = test system: formalin-induced rat paw oedema; assay: Formalin-induced hind rat paw oedema assay; type: in vivo; settings: low dose 10 mg kg^−1 b.w, intraperitoneal, mean ± SEM n = 5
[2] = molecular target: T1, COX-1 (Ovis aries, UniProt P05979); assay: COX-1 inhibitory assay; type: biochemical; settings: Cyclooxygenase-1; ΔGexp = −RT ln IC50, T = 300 K
T1 sequence (P05979 25-600): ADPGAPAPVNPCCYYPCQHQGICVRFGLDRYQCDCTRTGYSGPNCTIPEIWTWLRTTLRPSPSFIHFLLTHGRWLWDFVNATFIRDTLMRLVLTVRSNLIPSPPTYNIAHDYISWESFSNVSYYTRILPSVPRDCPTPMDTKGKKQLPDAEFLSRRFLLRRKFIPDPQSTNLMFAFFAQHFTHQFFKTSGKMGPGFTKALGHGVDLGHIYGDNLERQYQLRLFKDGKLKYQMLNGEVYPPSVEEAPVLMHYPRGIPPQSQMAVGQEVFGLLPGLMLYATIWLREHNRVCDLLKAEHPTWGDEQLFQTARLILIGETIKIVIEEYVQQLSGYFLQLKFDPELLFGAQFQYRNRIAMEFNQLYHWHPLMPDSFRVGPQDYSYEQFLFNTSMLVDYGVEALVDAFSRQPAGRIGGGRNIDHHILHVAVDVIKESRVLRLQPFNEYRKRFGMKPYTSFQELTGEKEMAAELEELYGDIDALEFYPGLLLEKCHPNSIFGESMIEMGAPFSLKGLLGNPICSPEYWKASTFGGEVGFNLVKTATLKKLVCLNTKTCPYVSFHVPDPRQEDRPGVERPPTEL

Row | Structure (SMILES) | percentage reduction of rat paw oedema ([1]; 1 h) | percentage reduction of rat paw oedema ([1]; 2 h) | percentage reduction of rat paw oedema ([1]; 4 h) | ΔGexp (experimental binding free energy) [2]
1 | Cc1ccc(-c2cc(C(F)(F)F)nn2-c2ccc(S(N)(=O)=O)cc2)cc1 [Celecoxib] | 24.7 ± 2.2% | 31.4 ± 1.8% | 38.5 ± 1.7% | –
2 | COc1ccc2c(c1)c(CC(=O)O)c(C)n2C(=O)c1ccc(Cl)cc1 [Indomethacin] | 23.3 ± 2.2% | 31.0 ± 3.0% | 37.4 ± 2.8% | -11.0 kcal/mol

Source: article PMC9040635 (RSC Advances, 2021)
